Results taken from patent US20210161877A1, “GASTROPROTECTED, HYDROPHOBIC FORMULATION OF AT LEAST ONE ACTIVE PRINCIPLE AND METHOD FOR OBTAINING SAME” (priority 2018, published 2021).

Assays:
[1] = Test of gastroprotection and preliminary bioavailability on animals (oral administration); conditions: rat, in vivo, fasted male Sprague-Dawley rats, 40 mg/kg of BZ
Method: Test of gastroprotection and preliminary bioavailability on animals. In this test, the protective capacity of the BZ-AT formulation according to the invention as described in this example and of an unprotected form of BZ are compared.
Each formulation is administered orally to male Sprague-Dawley rats weighing between 175-250 g. Tests are performed with pure BZ and the BZ-AT form taken up at 10 mg/ml in the following aqueous solution:
The volume that may be administered is adjusted as a function of each animal to enable a dose of 4 mL/kg to be achieved, i.e. 40 mg/kg of BZ. The administration is performed orally on the fasted animal.

[2] = Stability of the particles in 0.1 N hydrochloric acid solution, HPLC assay; format: physicochemical; conditions: 0.1 N HCl medium at 25° C., 500 ml, 20 mg of BZ, 120 minutes of incubation; percentage of the initial dose
Method: Measurement of the stability of the particles in 0.1 N hydrochloric acid solution, via an HPLC assay method: • Column (ProntoSlL, Bischoff, Germany): C18, 5 μm, 120 Å, 4.6×150 mm, • Mobile phase: methanol, 65%/10 mM Na2HPO4, 35%, • Flow rate: 1.00 mL/min, • Temperature: 20° C. (thermostat), • Detection: UV (λ=310 nm) • Injection volume: 20 μL.
The stability is measured in 0.1 N HCl medium at 25° C., for a volume of 500 ml and 20 mg of BZ. The results collated in FIG. 2 are expressed as a percentage of the initial dose.

AUC [1]: < 5 ng·h/mL
Cmax [1]: 2.54 ng/mL
Tmax [1]: 48 min
degradation [2]: 100%
Compound: COCCCOc1ccnc(C[S+]([O-])c2nc3ccccc3[nH]2)c1C (stereo not shown) [BZ, 2-([4-(3-methoxypropoxy)-3-methylpyridin-2-yl]methylsulfinyl)-1H-benzo[d]imidazole]
